Laboratory results: patent publication US20250188078A1, “SMALL MOLECULE INHIBITORS OF THE CRL4 UBIQUITIN LIGASE” (Cornell University, priority 2022, published 2025)

Molecular target: DDB1-BPB (Homo sapiens (Human), UniProt Q16531)
Test: Surface Plasmon Resonance (SPR) binding to DDB1-BPB
Conditions: DDB1-BPB immobilized
Excerpt: Kd represents dissociation constant, which measures the affinity of small molecule binding to the scaffold DDB1-BPB by Surface Plasmon Resonance (SPR) (https://www.bio-rad.com/webroot/web/pdf/lsr/literature/Bulletin_6414.pdf, hereby incorporated by reference in its entirety) (see Table 1, column 8). To assess the interaction between DDB1-BPB and compounds, a multi-parametric SPR instrument (BioRad ProteON XPR360) was used. DDB1-BPB was immobilized onto the GLH sensor surface in a variety of ways as follows: flow channels were activated in parallel with 1/20 diluted EDC/SNHS. DDB1-BPB was diluted to 0.1 mg/mL in sodium acetate pH 4.5 and directly coupled onto channel for 4 min. Excess reactive esters were blocked with a 5-min injection of 1 M ethanolamine. Mean immobilization levels were 17,000 RU with <2% variation along a strip. One channel was left unmodified to provide an additional reference surface. Next, the binding kinetics of compounds on surfaces was determined in a single injection using a “one-shot” kinetic mode. Typically, compound was prepared as a twofold serial dilution (0, 3.125, 6.25, 12.5, 25, 50 μM) and injected for 60 s at […]. Dissociation was monitored for 800 s. Surfaces were regenerated with multiple 30-s pulses of 60 mM phosphoric acid so that the experiment could be reproduced. All resulting sensor grams were collected and analyzed using the ProteOn manager software.

Sequence of DDB1-BPB (Q16531 403-706): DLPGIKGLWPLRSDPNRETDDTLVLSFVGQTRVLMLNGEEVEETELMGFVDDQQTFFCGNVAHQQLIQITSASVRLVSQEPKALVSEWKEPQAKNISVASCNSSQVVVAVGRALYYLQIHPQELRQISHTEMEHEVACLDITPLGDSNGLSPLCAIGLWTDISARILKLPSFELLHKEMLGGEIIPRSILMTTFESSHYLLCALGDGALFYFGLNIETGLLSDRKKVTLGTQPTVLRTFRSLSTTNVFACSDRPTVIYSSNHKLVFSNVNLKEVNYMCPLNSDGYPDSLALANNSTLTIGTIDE

## CN(c1ccc(-c2nc(C(=O)O)cc3c2[nH]c2cccc(F)c23)cc1)S(=O)(=O)c1ccccc1 [PA99, 5-fluoro-1-(4-(N-methylphenylsulfonamido)phenyl)-9H-pyrido[3,4-b]indole-3-carboxylic acid]
  Kd: 2.13 µM
